Laboratory results as given in patent EP0025842B1, “Peptides, process for their preparation, their pharmaceutical compositions and their intermediates” (FUJISAWA PHARMACEUTICAL CO., LTD., priority 1979, dated 1987).

Legend:
mouse L cell = test: Cell toxicity (mouse L cell); assay type: cell-based; conditions: 500 µg/ml
mice = test: Acute toxicity in mice; assay type: in vivo; conditions: 1 g/kg (i.v.)
From the text: 7. Acute toxicity in mice of FR-900156 1 g/kg (i.v.): no toxicity

Structure (SMILES): C[C@H](NC(=O)[C@@H](C)O)C(=O)N[C@H](CCC(=O)N[C@@H](CCC[C@@H](N)C(=O)O)C(=O)NCC(=O)O)C(=O)O [FR-900156, D-Lactyl-L-alanyl-γ-D-glutamyl-(L)-mesodiaminopimelyl(L)-glycine]
- Cell toxicity (mouse L cell) (mouse L cell): no toxic effect
- Acute toxicity in mice (mice): no toxicity
